The target of data set [1] is T1, human adenosine A2A receptor (Homo sapiens, UniProt P29274).
T1 construct: expressed in transfected cells; host or cells: HEK-293
The experiment in a line: Antagonizing effect on human adenosine A2A receptor (NECA-stimulated cAMP, TR-FRET, HEK-293 cells). The data set is classed as cell-based. Conditions: inhibition of cAMP produced by NECA (3 nM), HEK-293 cells expressing human recombinant A2A receptor. As to the method:
The experimental system uses human recombinant adenosine A2A receptor, which is stably expressed in HEK-293 cell line. HEK-293 cells were inoculated into culture plate at a density of 1.25×10^5 cells/mL. The medium was changed by modified HBSS solution with pH 7.4, different concentrations of test compounds ([…], 1 μM, […], 10 nM, 1 nM, 0.1 nM) and solvents (PBS with 0.1% DMSO) were added, and the plate was incubated at 37° C. for 10 min. cAMP (cyclic adenosine monophosphate) concentration in culture medium was detected by TR-FRET method. NECA was used as a positive control in this experiment, (1) test compounds alone were used to stimulate cells to produce a certain amount of cAMP, and then NECA (0.1 μM) alone was used to stimulate cells to produce a certain amount of cAMP. A test compound is considered to have agonistic activity on adenosine A2A receptor if the test compound alone stimulates cells to produce cAMP more than 50% of the amount of cAMP produced by NECA (0.1 μM) alone. (2) All cells were first incubated with test compounds and then stimulated with NECA (3 nM). In addition, NECA (3 nM) alone was used to stimulate cells to produce a certain amount of cAMP. […] IC50 was calculated using MathIQ™ (ID Business Solutions Ltd., UK) through nonlinear, least squares regression equation analysis.
For orientation: Time-resolved FRET reads energy transfer from a long-lived donor to a nearby acceptor.

Data set [2] is described as follows: Pharmacokinetic evaluation in rats after intravenous or gavage administration. In kind it is in vivo, SD rats. Conditions: for AUC(0-inf) / AUC(0-t) / Cmax / MRT inf / Tmax / clearance / half-life / Vd: SD, rat, plasma; for Vd: read-out: Vss; for F: gavage 5 mg/kg vs intravenous 1 mg/kg. The method, then: (§1) The LC-MS/MS system for analysis includes the Agilent 1200 series vacuum degasser, a quaternary pump, an orifice plate sampler, a thermostatted column oven, and an API4000Qtrap triple quadrupole mass spectrometer with an electrospray ionization source (ESI).
Waters ACQUITY UPLC CSH C18, 2.1×50 mm, 1.7 μm column was used for analysis, and 0.8 μL of sample was injected. Analytical conditions: mobile phase was H2O+2 mM HCOONH4 (ammonium formate)+0.1% FA (formic acid) (mobile phase A) and MeOH (methanol)+2 mM HCOONH4 (ammonium formate)+0.1% FA (formic acid) (mobile phase B). Flow rate was 0.7 mL/min.
The experiment was divided into two groups: one was administered by intravenous injection, and the other was administered by intragastric administration. The compound of the present invention was administered to a test animal (overnight fast for 12 hours) in the form of 10% DMA (heating)+60% PEG400+30% saline solution. For the group of intravenous administration, the administration dose was 1 mg/kg, and vein blood samples (0.3 mL) were collected at the time points of 0.083, 0.25, 0.5, 1.0, 2.0, 5.0, 7.0 and 24 h after administration. EDTA-K2 as anticoagulant was added into the blood vessel. The plasma solutions were collected by centrifuging each blood sample at 3,000 rpm or 4,000 rpm for 10 minutes and kept at −20° C. or −70° C. For the group of intragastric administration, the administration dose was 5 mg/kg, and vein blood samples (0.3 mL) were collected at the time points of 0.25, 0.5, 1.0, 2.0, 5.0, 7.0 and 24 h after administration. EDTA-K2 as anticoagulant was added into the blood vessel. The plasma solutions were collected by centrifuging each blood sample at 3,000 rpm or 4,000 rpm for 10 minutes and kept at −20° C. or −70° C.
20 μL of plasma was taken, 120 μL of IS working solution was added to the plasma, and the plasma was vortexed for 2 min. The mixed solution was then centrifuged at 12,000 rpm for 2 min. 100 μL of the supernatant was taken, 110 μL of MeOH/H2O (v/v=1/1) was added, and the solution was vortexed for 2 minutes, then 5 μL was taken for injection into the LC-MS/MS system. LC-MS/MS method was used to detect the concentration of target compounds, and non-compartment model was used to calculate pharmacokinetic parameters.

Data set [3] in a line: Pharmacokinetic evaluation in beagles after intravenous or gavage administration. In kind it is in vivo. The following applies: for AUC(0-inf) / AUC(0-t) / Cmax / MRT inf / Tmax / clearance / half-life / Vd: beagle, dog, plasma; for Vd: read-out: Vss; for F: gavage 2.5 mg/kg vs intravenous 0.5 mg/kg. The method, then:
The test animals are mice and/or dogs.
as §1
A waters xbridge C18 UPLC, 2.1×50 mm, […] column was used for analysis and 0.5 μL of sample was injected. Analytical conditions: mobile phase was H2O+2 mM HCOONH4 (ammonium formate)+0.1% FA (formic acid) (mobile phase A) and MeOH (methanol)+2 mM HCOONH4 (ammonium formate)+0.1% FA (formic acid) (mobile phase B). The flow rate was 0.7 mL/min.
The experiment was divided into two groups: one was administered by intravenous injection, and the other was administered by intragastric administration. The compound of the present invention was administered to test animals in the form of 10% DMA+60% PEG400+30% saline solution. […] Each blood sample was centrifuged at 3,000 rpm or 4,000 rpm for 10 minutes. The plasma solutions were collected and anticoagulant was EDTA-K2. The plasma solutions were then kept at −20° C. or −70° C. […]
10 μL of plasma was taken, 120 μL of IS working solution was added to the plasma, and the plasma was vortexed for 2 min. The mixed solution was then centrifuged at 12,000 rpm for 2 min. 80 μL of the supernatant was taken, 140 μL of MeOH/H2O (v/v=1/1) was added, and the solution was vortexed for 2 minutes, then 1.0 μL was taken for injection into the LC-MS/MS system. LC-MS/MS method was used to detect the concentration of target compounds, and non-compartment model was used to calculate pharmacokinetic parameters.

Where [4] appears, read: intravenous injection, 0.5 mg/kg.

Consider four compounds from patent publication US20230017597A1, “8-SUBSTITUTED STYRYL XANTHINE DERIVATIVES AND USES THEREOF” (SUNSHINE LAKE PHARMA CO., LTD., priority 2019, published 2023).

Molecules are shown by their SMILES.

T1 sequence (P29274 whole entry): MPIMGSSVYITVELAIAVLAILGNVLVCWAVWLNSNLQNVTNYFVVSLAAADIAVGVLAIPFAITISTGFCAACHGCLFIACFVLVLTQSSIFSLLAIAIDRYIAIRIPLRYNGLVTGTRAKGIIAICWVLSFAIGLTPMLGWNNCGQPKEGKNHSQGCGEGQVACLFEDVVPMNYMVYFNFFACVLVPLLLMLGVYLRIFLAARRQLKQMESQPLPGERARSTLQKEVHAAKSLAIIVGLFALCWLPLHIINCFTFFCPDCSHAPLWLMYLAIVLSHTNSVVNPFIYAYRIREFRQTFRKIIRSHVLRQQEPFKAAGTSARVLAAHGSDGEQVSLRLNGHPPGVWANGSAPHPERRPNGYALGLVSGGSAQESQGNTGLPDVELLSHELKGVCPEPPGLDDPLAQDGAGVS

`CCn1c(=O)c2c(nc(/C=C/c3ccc(OC4CCNCC4)cc3)n2C)n(CC)c1=O` [Example 1, (E)-1,3-diethyl-7-methyl-8-(4-(piperidin-4-yloxy)styryl)-1H-purine-2,6(3H,7H)-dione]: the IC50 (as a rule, the concentration that inhibits the measured activity by half) in data set [1] amounted to 550 nM.

With `CCN1CCC(Oc2ccc(/C=C/c3nc4c(c(=O)n(CC)c(=O)n4CC)n3C)cc2)CC1` [Example 3, (E)-1,3-diethyl-7-methyl-8-(4-((1-ethylpiperidin-4-yl)oxy)styryl)-1H-purine-2,6(3H,7H)-dione], the IC50 in data set [1] worked out at 1480 nM.

With `CCn1c(=O)c2c(nc(/C=C/c3ccc(OC4CCN(C(C)=O)CC4)cc3)n2C)n(CC)c1=O` [Example 6, (E)-8-(4-((1-acetylpiperidin-4-yl)oxy)styryl)-1,3-diethyl-7-methyl-1H-purine-2,6 (3H,7H)-dione], in data set [2] (intravenous injection, 1 mg/kg), the AUC(0-inf) (in general, total exposure, with the tail of the curve extrapolated) was 6290 ng·h/mL; the AUC(0-t) (as a rule, the area under the concentration-time curve up to a stated or last time point) amounted to 6230 ng·h/mL; the highest level (Cmax) was 1610 ng/mL; the MRT inf (usually a mean duration of stay, worked out from the concentration-time curve) amounted to 4.37 h. Also, in data set [2] (intravenous injection, 1 mg/kg), the Tmax (usually the time from dosing to the highest level) stood at 4.98 min, the clearance stood at 2.65 mL/min/kg, the half-life (commonly the time needed for the level to fall by half in the phase considered) is 229 min and the Vd amounted to 0.696 L/kg. Also, in data set [2] (po, gavage, 5 mg/kg), the AUC(0-inf) was 40400 ng·h/mL, the AUC(0-t) came to 36900 ng·h/mL, the highest level (Cmax) was 2930 ng/mL and the MRT inf came out at 9.22 h. Further, in data set [2] (po, gavage, 5 mg/kg), the Tmax is 90 min and the half-life was 418 min. For the same compound, the F in data set [2] amounted to 118.4%. In data set [3] (setting [4]), the AUC(0-inf) was 6110 ng·h/mL; the area under the curve AUC(0-t) was found to be 5830 ng·h/mL; the Cmax (as a rule, the maximum level reached in the sampled fluid or tissue) stood at 634 ng/mL; the MRT inf was 7.37 h. In data set [3] (setting [4]), the Tmax was determined as 15 min, the clearance was 1.36 mL/min/kg, the half-life is 349 min and the Vd was 0.604 L/kg. In data set [3] (po, gavage, 2.5 mg/kg), this compound came in with an AUC(0-inf) of 56500 ng·h/mL, an AUC(0-t) of 47200 ng·h/mL, a Cmax of 3320 ng/mL and an MRT inf of 12.5 h. Further, in data set [3] (po, gavage, 2.5 mg/kg), the Tmax is 160 min and the half-life was 547 min. The compound further returned a F in data set [3] of 170.5%. Besides, in data set [1], the IC50 worked out at 350 nM.

As for `CCn1c(=O)c2c(nc(/C=C/c3ccc(OC4CCN(S(C)(=O)=O)CC4)cc3)n2C)n(CC)c1=O` [Example 8, (E)-1,3-diethyl-7-methyl-8-(4-((1-(methylsulfonyl)piperidin-4-yl)oxy)styryl)-1H-purine-2,6(3H, 7H)-dione], in data set [2] (intravenous injection, 1 mg/kg), the AUC(0-inf) turned out to be 1830 ng·h/mL, the AUC(0-t) stood at 1810 ng·h/mL, the concentration peaked (Cmax) at 817 ng/mL and the mean residence time MRT inf was 3.1 h. Also, in data set [2] (intravenous injection, 1 mg/kg), the Tmax amounted to 4.98 min, the clearance came out at 9.1 mL/min/kg, the half-life is 278 min and the Vd stood at 1.69 L/kg. For the same compound, in data set [2] (po, gavage, 5 mg/kg), the AUC(0-inf) came out at 11900 ng·h/mL, the AUC(0-t) came to 11900 ng·h/mL, the Cmax is 2030 ng/mL and the MRT inf was found to be 4.07 h. Besides, in data set [2] (po, gavage, 5 mg/kg), the time to peak (Tmax) turned out to be 100 min and the half-life is 168 min. In data set [2], this compound gave an F of 131.5%. In data set [3] (setting [4]), this compound displayed an AUC(0-inf) of 6310 ng·h/mL, an AUC(0-t) of 4990 ng·h/mL, a Cmax of 775 ng/mL and an MRT inf of 14.4 h. Besides, in data set [3] (setting [4]), the Tmax turned out to be 4.98 min, the clearance is 1.32 mL/min/kg, the half-life is 566 min and the Vd is 1.14 L/kg. In data set [3] (po, gavage, 2.5 mg/kg), the AUC(0-inf) turned out to be 31800 ng·h/mL, the AUC(0-t) was 22700 ng·h/mL, the Cmax came out at 1720 ng/mL and the mean residence time MRT inf worked out at 18.1 h. For the same compound, in data set [3] (po, gavage, 2.5 mg/kg), the Tmax came out at 40 min and the half-life is 690 min. The compound also gave a F in data set [3] of 91.1%. Moreover, in data set [1], the half-inhibitory concentration (IC50) amounted to 750 nM.
